# Data taken from PubChem BioAssay (NCI).
#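 Briefly, cells in 96-well plates were exposed to five compound concentrations for 48 h, and endpoints were estimated by linear interpolation. GI50 is the concentration that inhibits growth by half. At the TGI there is no net growth.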
# What was measured:
# Experiment in all cases: NCI anticancer screen, dose series, 48 h
# [1] = system: BT-549 breast
# [2] = system: HS 578T breast
# [3] = system: MDA-MB-231 breast
# [4] = system: CAKI-1 renal
# [5] = system: M14 melanoma
# [6] = system: SN12C renal
# [7] = system: SK-MEL-28 melanoma
# [8] = system: LOX IMVI melanoma
# [9] = system: SNB-75 CNS
# [10] = system: HOP-92 NSCLC
# [11] = system: HL-60(TB) leukemia
# [12] = system: SK-OV-3 ovarian
# [13] = system: MCF7 breast
# [14] = system: RXF 393 renal
# [15] = system: ACHN renal
# [16] = system: NCI-H226 lung
# [17] = system: HCT-116 colon
# [18] = system: NCI-H522 lung
# [19] = system: DU-145 prostate
# [20] = system: SW-620 colon
# [21] = system: IGROV1 ovarian
# [22] = system: OVCAR-8 ovarian
# [23] = system: U251 CNS
# [24] = system: SF-268 CNS
# [25] = system: CCRF-CEM leukemia
# [26] = system: OVCAR-3 ovarian
# [27] = system: SK-MEL-5 melanoma
# [28] = system: HCT-15 colon
# [29] = system: T-47D breast
# [30] = system: PC-3 prostate
# [31] = system: SF-539 CNS
# [32] = system: SR leukemia
# [33] = system: COLO 205 colon
# [34] = system: A549 NSCLC
# [35] = system: MOLT-4 leukemia
# [36] = system: KM12 colon
# [37] = system: MALME-3M melanoma
# [38] = system: OVCAR-5 ovarian
# [39] = system: 786-0 renal
# [40] = system: RPMI-8226 leukemia
# [41] = system: UACC-62 melanoma
# [42] = system: OVCAR-4 ovarian
# [43] = system: HCC-2998 colon
# [44] = system: SF-295 CNS
# [45] = system: SNB-19 CNS
# [46] = system: K-562 leukemia
# [47] = system: HOP-62 NSCLC
# [48] = system: UACC-257 melanoma
# [49] = system: HT29 colon
# [50] = system: SK-MEL-2 melanoma
# [51] = system: NCI-H460 lung
# [52] = system: MDA-MB-435
# [53] = system: TK-10 renal
# [54] = system: NCI-H23 lung
# [55] = system: NCI/ADR-RES ovarian
# [56] = system: A498 renal
# [57] = system: EKVX NSCLC
# [58] = system: UO-31 renal
structure (smiles),measurement,setting,value
Nc1c(C(=O)Nc2ccccn2)sc2nc3c(cc12)CCCCC3,GI50,[1],2.36 µM
same,TGI,[1],> 50 µM
same,GI50,[2],2.74 µM
same,TGI,[2],> 50 µM
same,GI50,[3],3.83 µM
same,TGI,[3],> 50 µM
same,GI50,[4],3.51 µM
same,TGI,[4],> 50 µM
same,GI50,[5],1.26 µM
same,TGI,[5],> 50 µM
same,GI50,[6],3.59 µM
same,TGI,[6],> 50 µM
same,GI50,[7],6.23 µM
same,TGI,[7],> 50 µM
same,GI50,[8],9.56 µM
same,TGI,[8],> 50 µM
same,GI50,[9],2.35 µM
same,TGI,[9],> 50 µM
same,GI50,[10],27.9 µM
same,TGI,[10],> 50 µM
same,GI50,[11],1.34 µM
same,TGI,[11],> 50 µM
same,GI50,[12],2.14 µM
same,TGI,[12],> 50 µM
same,GI50,[13],0.851 µM
same,TGI,[13],> 50 µM
same,GI50,[14],1.4 µM
same,TGI,[14],4.86 µM
same,GI50,[15],2.71 µM
same,TGI,[15],> 50 µM
same,GI50,[16],2.6 µM
same,TGI,[16],> 50 µM
same,GI50,[17],1.77 µM
same,TGI,[17],> 50 µM
same,GI50,[18],2.11 µM
same,TGI,[18],> 50 µM
same,GI50,[19],1.88 µM
same,TGI,[19],> 50 µM
same,GI50,[20],3.19 µM
same,TGI,[20],> 50 µM
same,GI50,[21],3.58 µM
same,TGI,[21],> 50 µM
same,GI50,[22],2.87 µM
same,TGI,[22],> 50 µM
same,GI50,[23],2.64 µM
same,TGI,[23],> 50 µM
same,GI50,[24],4.89 µM
same,TGI,[24],> 50 µM
same,GI50,[25],1.91 µM
same,TGI,[25],> 50 µM
same,GI50,[26],1.63 µM
same,TGI,[26],> 50 µM
same,GI50,[27],2.13 µM
same,TGI,[27],> 50 µM
same,GI50,[28],1.38 µM
same,TGI,[28],> 50 µM
same,GI50,[29],1.79 µM
same,TGI,[29],> 50 µM
same,GI50,[30],2.59 µM
same,TGI,[30],> 50 µM
same,GI50,[31],1.39 µM
same,TGI,[31],> 50 µM
same,GI50,[32],0.521 µM
same,TGI,[32],> 50 µM
same,GI50,[33],1.42 µM
same,TGI,[33],> 50 µM
same,GI50,[34],2.47 µM
same,TGI,[34],> 50 µM
same,GI50,[35],2.32 µM
same,TGI,[35],> 50 µM
same,GI50,[36],1.95 µM
same,TGI,[36],> 50 µM
same,GI50,[37],34.3 µM
same,TGI,[37],> 50 µM
same,GI50,[38],3.8 µM
same,TGI,[38],> 50 µM
same,GI50,[39],1.78 µM
same,TGI,[39],> 50 µM
same,GI50,[40],1.98 µM
same,TGI,[40],> 50 µM
same,GI50,[41],3.06 µM
same,TGI,[41],> 50 µM
same,GI50,[42],4.09 µM
same,TGI,[42],> 50 µM
same,GI50,[43],2.37 µM
same,TGI,[43],> 50 µM
same,GI50,[44],1.56 µM
same,TGI,[44],> 50 µM
same,GI50,[45],2.77 µM
same,TGI,[45],> 50 µM
same,GI50,[46],0.987 µM
same,TGI,[46],> 50 µM
same,GI50,[47],3.46 µM
same,TGI,[47],> 50 µM
same,GI50,[48],> 50 µM
same,TGI,[48],> 50 µM
same,GI50,[49],1.75 µM
same,TGI,[49],> 50 µM
same,GI50,[50],2.08 µM
same,TGI,[50],> 50 µM
same,GI50,[51],1.83 µM
same,TGI,[51],> 50 µM
same,GI50,[52],0.25 µM
same,TGI,[52],> 50 µM
same,GI50,[53],4.98 µM
same,TGI,[53],> 50 µM
same,GI50,[54],2.19 µM
same,TGI,[54],> 50 µM
COc1ccc2c(c1OC)CO[C@@H]2[C@H]1c2c(c(Br)c3c(c2OC)OCO3)CCN1C,GI50,[1],6.8 µM
same,TGI,[1],35.9 µM
same,GI50,[2],3.08 µM
same,TGI,[2],12.7 µM
same,GI50,[55],4.45 µM
same,TGI,[55],> 100 µM
same,GI50,[4],4.17 µM
same,TGI,[4],22.1 µM
same,GI50,[5],3.47 µM
same,TGI,[5],9.74 µM
same,GI50,[6],3.98 µM
same,TGI,[6],16.8 µM
same,GI50,[7],36.6 µM
same,TGI,[7],> 100 µM
same,GI50,[8],2.67 µM
same,TGI,[8],12.2 µM
same,GI50,[9],40.2 µM
same,TGI,[9],> 100 µM
same,GI50,[10],6.74 µM
same,TGI,[10],57.6 µM
same,GI50,[11],1.89 µM
same,TGI,[11],> 100 µM
same,GI50,[12],61.2 µM
same,TGI,[12],> 100 µM
same,GI50,[13],3.19 µM
same,TGI,[13],29.3 µM
same,GI50,[14],4.9 µM
same,TGI,[14],29.8 µM
same,GI50,[15],6.63 µM
same,TGI,[15],> 100 µM
same,GI50,[16],5.16 µM
same,TGI,[16],32.3 µM
same,GI50,[17],5.09 µM
same,TGI,[17],22.6 µM
same,GI50,[56],2.27 µM
same,TGI,[56],4.43 µM
same,GI50,[18],3.41 µM
same,TGI,[18],23.1 µM
same,GI50,[19],6.96 µM
same,TGI,[19],> 100 µM
same,GI50,[20],3.57 µM
same,TGI,[20],> 100 µM
same,GI50,[21],8.73 µM
same,TGI,[21],> 100 µM
same,GI50,[22],7.3 µM
same,TGI,[22],> 100 µM
same,GI50,[23],4.59 µM
same,TGI,[23],70.6 µM
same,GI50,[24],5.16 µM
same,TGI,[24],25.5 µM
same,GI50,[26],3.91 µM
same,TGI,[26],13.6 µM
same,GI50,[27],2.42 µM
same,TGI,[27],11.8 µM
same,GI50,[28],2.69 µM
same,TGI,[28],> 100 µM
same,GI50,[29],66.8 µM
same,TGI,[29],> 100 µM
same,GI50,[30],8.74 µM
same,TGI,[30],> 100 µM
same,GI50,[31],2.83 µM
same,TGI,[31],9.3 µM
same,GI50,[32],1.01 µM
same,TGI,[32],> 100 µM
same,GI50,[33],31.4 µM
same,TGI,[33],85.4 µM
same,GI50,[34],7.53 µM
same,TGI,[34],> 100 µM
same,GI50,[35],3.55 µM
same,TGI,[35],> 100 µM
same,GI50,[36],4.26 µM
same,TGI,[36],23.8 µM
same,GI50,[38],18.6 µM
same,TGI,[38],> 100 µM
same,GI50,[39],4.66 µM
same,TGI,[39],19.3 µM
same,GI50,[40],4.24 µM
same,TGI,[40],> 100 µM
same,GI50,[41],2.07 µM
same,TGI,[41],9.2 µM
same,GI50,[42],> 100 µM
same,TGI,[42],> 100 µM
same,GI50,[44],2.84 µM
same,TGI,[44],7.65 µM
same,GI50,[45],39.2 µM
same,TGI,[45],> 100 µM
same,GI50,[46],2.37 µM
same,TGI,[46],> 100 µM
same,GI50,[47],5.88 µM
same,TGI,[47],32.7 µM
same,GI50,[48],4.28 µM
same,TGI,[48],19.9 µM
same,GI50,[57],3.95 µM
same,TGI,[57],34.8 µM
same,GI50,[49],30.7 µM
same,TGI,[49],> 100 µM
same,GI50,[50],5.77 µM
same,TGI,[50],43.7 µM
same,GI50,[58],10.6 µM
same,TGI,[58],> 100 µM
same,GI50,[51],3.03 µM
same,TGI,[51],14 µM
same,GI50,[52],3.07 µM
same,TGI,[52],8.69 µM
same,GI50,[53],4.42 µM
same,TGI,[53],21.6 µM
same,GI50,[54],4.1 µM
same,TGI,[54],22 µM
